Laboratory results: patent publication US6685951B2, “Administration of dihydroergotamine as a sublingual spray or aerosol for the treatment of migraine” (R. T. Alamo Ventures I, Inc., priority 2001, dated 2004)

How the values were obtained:
migraine symptoms [1] = assay: Example 2: sublingual DHE vs placebo in patients suffering from migraines; format: in vivo; settings: 1 mg sublingual DHE
Description: This experiment utilizes two test groups of patients. All of the patients are suffering from migraines. One group receives a 1 mg dose of sublingual DHE, the other group receives a placebo. The DHE sublingual formulation is placed by the patients or medical professional under the tongue. The DHE sublingual formulation is allowed to dissolve fully. If the symptoms are not relieved within 20 to 40 minutes, a second dose is administered. Results are compared between the test group and the placebo group. […] The difference in amelioration of migraine symptoms are statistically significant.

[2] = Example 5: plasma uptake of DHE, sublingual tablet vs subcutaneous administration; format: in vivo, patient; settings: plasma monitored 24 hours
Description: This example evaluates the uptake in sublingual vs. subcutaneous administration of DHE.
In this experiment one patient suffering from migraine pain is administered a migraine ameliorating dose of DHE as a sublingual tablet formulated as described in Example 1. The plasma concentration of DHE is monitored for a time of 24 hours after the administration. […] The rate and amount of DHE in the plasma is compared to that obtained by subcutaneous administration.

migraine symptoms [3] = assay: Example 4: sublingual DHE vs nasal administration of DHE in migraine patients; format: in vivo; settings: 2 mg sublingual vs 2 mg nasally administered
Description: This example compares the effect on migraine of nasal administration of DHE vs. the sublingual administration of the present invention.
This experiment utilizes three test groups of patients. All of the patients are suffering from migraines. One group receives a 2 mg dose of sublingual DHE and placebo intranasal spray, the second group receives a 2 mg nasally administered dose of a pharmaceutical formulation comprising DHE and a placebo sublingual tablet, the third group receives a placebo sublingual tablet and a placebo intranasal spray. Results are compared between the active sublingual test group and the active nasal test group.

[4] = Plasma DHE after sublingual administration of DHE 45 dosing solution in a monkey; format: in vivo, Cynomogolius monkey
Description: In this example the intrinsic permeability of DHE was shown after it was sublingually administered DHE in a Cynomogolius monkey.
The test DHE was obtained from as DHE 45® Injection, USP (manufactured by Novartis). Specific information follows.
(§1) Prior to dose administration, the animal was restrained and anesthetized with an appropriate amount of ketamine. Using a calibrated pipette, 0.5 mL of dosing solution was placed under the animal's tongue immediately after swabbing excess saliva with a gauze pad (the gauze pad will be discarded). The animal's head was restrained for approximately 5 minutes in such a manner to minimize any loss of the dose solution through the animal's mouth or down the animal's throat.
Blood (approximately 1 mL) was collected from each animal prior to dosing (predose) and at 0.1, 0.2, 0.3, 0.4, 0.5, 1, 2, 4, 8, and 12 hours postdose. Blood was collected via a femoral vein into sodium-heparinized tubes.
Blood was maintained on wet ice, in chilled Kryoracks, or at approximately 5° C. prior to centrifugation to obtain plasma. Centrifugation was begin within 30 minutes of collection. The blood samples were centrifuged at approximately 5° C. for approximately 10 minutes at approximately 4,000 rpm. Plasma was harvested and stored on dry ice or at approximately −70° C. prior to shipment.
The plasma was assayed for DHE using standard techniques.

[5] = Mortality/moribundity checks and cageside observation after sublingual DHE; format: in vivo, Cynomogolius monkey; settings: sublingual 0.5 mL of 1.0 mg/mL; throughout the study
Description: as §1
Mortality and moribundity checks were done twice daily (a.m. and p.m.). Cageside observation for general health and appearance was done once daily.

[6] = oral forms of DHE; cited from earlier work
[7] = Example 6: two-way crossover, DHE tablet under the tongue vs orally with water; format: in vivo, healthy normal volunteers; settings: tablet under the tongue vs orally with about 240 ml water; blood over 24 hour
Description: Each volunteer is administered DHE sublingual tablet manufactured as defined in this patent. In one treatment the tablet is administered under the tongue and in the crossover treatment the subject is administered the tablet orally with about 240 ml of water. Blood samples are taken serially over a 24 hour duration post administration and assayed for unchanged DHE and the principle 8-hydroxy DHE metabolite.

migraine symptoms [8] = assay: Example 3: sublingual DHE tablet vs subcutaneous injection of DHE in migraine patients; format: in vivo; settings: 1 mg sublingual tablet vs 1 mg subcutaneous injection
Description: This example compares the effect on migraine of subcutaneous injection vs. the sublingual administration of the present invention.
This experiment utilizes three test groups of patients. All of the patients are suffering from migraines. One group receives a 1 mg dose of sublingual DHE tablet and a placebo subcutaneous injection, the second group receives a 1 mg subcutaneous injection of a pharmaceutical formulation comprising DHE and a placebo sublingual tablet, and the third group receives a placebo subcutaneous injection and a placebo sublingual tablet. Results are compared between the active sublingual test group and the active subcutaneous test group.

migraine = settings: in vivo; cited from earlier work

Row | SMILES | amelioration of migraine symptoms compared to placebo control group (migraine symptoms [1]) | time to maximum plasma concentration of DHE [2] [min] | amelioration of migraine symptoms, sublingual vs nasal group (migraine symptoms [3]) | half-life ([4]; cynomolgus, monkey, in vivo) [min] | Tmax ([4]; cynomolgus, monkey, in vivo, 0.5 mg, plasma, sublingual 0.5 mL of 1.0 mg/mL, read-out: Tmax (time point of maximum concentration) (converted)) [min] | detection of DHE in the blood plasma after sublingual administration ([4]; sublingual) | observations for general health and appearance, mortality and moribundity [5] | active unchanged drug that reaches the blood stream [6] | levels of active DHE, sublingual higher than oral [7] | amelioration of migraine symptoms, sublingual vs subcutaneous group (migraine symptoms [8]) | efficacy in the treatment of migraine (migraine)
1 | CN1C[C@H](C(=O)N[C@]2(C)O[C@@]3(O)[C@@H]4CCCN4C(=O)[C@H](Cc4ccccc4)N3C2=O)C[C@@H]2c3cccc4[nH]cc(c34)C[C@H]21 [DHE, Dihydroergotamine] | greater amelioration of migraine symptoms | 30 to 60 | equivalent amelioration of migraine symptoms | 132 | 5 | rapid detection of DHE in the blood plasma | No unusual observations | 2-10% | at least 200% | equivalent amelioration of migraine symptoms | –
2 | CN(C)CCc1c[nH]c2ccc(Cn3cncn3)cc12 [rizatriptan] | – | – | – | – | – | – | – | – | – | – | 60-70%
